# Laboratory results from patent publication US20170210741A1, “Benzimidazole Compounds, Use As Inhibitors of WNT Signaling Pathway in Cancers, and Methods for Preparation Thereof” (Southern Research Institute, priority 2016, published 2017).
# Where two headings read alike, the source gives them in different places.
# How the values were obtained:
# Assay type in all cases: cell-based
# S2VP10 = experiment: In vitro cell viability assay (Cell Titer Glo), pancreatic cancer S2VP10; settings: 72 h
# Method: (§1) Breast cancer SUM159 was obtained from Asterand and grown according to supplier's recommendation. All other cell lines were obtained from ATCC and cultured in standard cell culture conditions with complete cell culture medium containing 10% FBS.
# (§2) Cancer cells were seeded into optically clear tissue culture-treated black 96-well plates (for adherent cells) or low-attachment 96-well plates (for cancer stem cells) at 2,000-5000 cells/50 μL of media per well. The cells were treated with Wnt inhibitors at 0.1 to 10 μM for 72 h. Cell viability was measured by the Cell Titer Glo Assay from Promega.
# Suit-2 = experiment: In vitro cell viability assay (Cell Titer Glo), pancreatic cancer Suit-2; settings: 72 h
# Method: as §1, §2
# Wnt signaling = Wnt signaling reporter assay (Super8XTOPFlash luciferase) in LRP6-expressing HEK293 cells; settings: Homo sapiens, 24 h treatment, luciferase normalized to β-galactosidase, read-out: IC50 (effects on Wnt signaling)
# Method: HEK293 cells were plated into 24-well plates. After overnight culture, the cells were transiently transfected with 0.06 μg of the Super8XTOPFlash luciferase construct, 0.06 μg of β-galactosidase-expressing vector, and 0.06 μg of pCS-Myc-hLRP6 or control vector. After 24 h incubation, cells were treated with each individual compound in triplicate for 24 h. Cells were then lysed, and the luciferase and β-galactosidase activities were determined by the luciferase assay system (Promega) and β-galactosidase assay system (Promega), respectively. The luciferase activity was normalized to the β-galactosidase activity.
# Table 2 below illustrates the effects of the disclosed compounds on Wnt signaling in LRP6-expressing HEK293 cells.
# PANC-1 = experiment: In vitro cell viability assay (Cell Titer Glo), pancreatic cancer PANC-1; settings: Homo sapiens, 72 h
# Method: as §1, §2
# HCT116 = experiment: In vitro cell viability assay (Cell Titer Glo), colorectal cancer HCT116; settings: Homo sapiens, HCT-116, 72 h
# Method: as §1, §2
# (§3) Table 4 below illustrates the effects of the disclosed compounds on cell viability of colorectal cancer cell lines.
# HT-29 = experiment: In vitro cell viability assay (Cell Titer Glo), colorectal cancer HT-29; settings: Homo sapiens, 72 h
# Method: as §1, §2, §3
# 2LMP = experiment: In vitro cell viability assay (Cell Titer Glo), breast cancer 2LMP; settings: 72 h
# Method: as §1, §2
# (§4) Table 5 below illustrates the effects of the disclosed compounds on cell viability of breast cancer cell lines.
# MDA-MB-468 = experiment: In vitro cell viability assay (Cell Titer Glo), breast cancer MDA-MB-468; settings: Homo sapiens, 72 h
# Method: as §1, §2, §4
# HCC1143 = experiment: In vitro cell viability assay (Cell Titer Glo), breast cancer HCC1143; settings: Homo sapiens, 72 h
# Method: as §1, §2, §4
# SUM159 = experiment: In vitro cell viability assay (Cell Titer Glo), breast cancer SUM159; settings: 72 h
# Method: as §1, §2, §4
# L3.6pl = experiment: In vitro cell viability assay (Cell Titer Glo), pancreatic cancer L3.6pl; settings: Homo sapiens, 72 h
# Method: as §1, §2
# [1] = S2VP10, CSC enriching serum free medium, non-adherent plates, read-out: Cell viability (IC50) S2VP10 CSC
# [2] = S2VP10, adherent, complete medium 10% FBS, read-out: Cell viability (IC50) S2VP10 Adherent
# [3] = Suit-2, CSC enriching serum free medium, non-adherent plates, read-out: Cell viability (IC50) Suit-2 CSC
# [4] = Suit-2, adherent, complete medium 10% FBS, read-out: Cell viability (IC50) Suit-2 Adherent
# [5] = PANC-1, adherent, complete medium 10% FBS, read-out: Cell viability (IC50) PANC-1 Adherent
# [6] = PANC-1, cancer stem cell (CSC) enriching serum free medium, non-adherent plates, read-out: Cell viability (IC50) PANC-1 CSC
# [7] = HCT116, CSC conditions, read-out: Cell viability (IC50) HCT116 CSC
# [8] = HCT116, adherent, read-out: Cell viability (IC50) HCT116 Adherent
# [9] = HT-29, CSC conditions, read-out: Cell viability (IC50) HT-29 CSC
# [10] = HT-29, adherent, read-out: Cell viability (IC50) HT-29 Adherent
# [11] = CSC conditions, read-out: Cell viability (IC50) 2LMP CSC
# [12] = adherent, read-out: Cell viability (IC50) 2LMP Adherent
# [13] = MDA-MB-468, CSC conditions, read-out: Cell viability (IC50) MDA-MB-468 CSC
# [14] = MDA-MB-468, adherent, read-out: Cell viability (IC50) MDA-MB-468 Adherent
# [15] = HCC1143, CSC conditions, read-out: Cell viability (IC50) HCC1143 CSC
# [16] = HCC1143, adherent, read-out: Cell viability (IC50) HCC1143 Adherent
# [17] = SUM159, CSC conditions, read-out: Cell viability (IC50) SUM159 CSC
# [18] = SUM159, adherent, read-out: Cell viability (IC50) SUM159 Adherent
# [19] = CSC enriching serum free medium, non-adherent plates, read-out: Cell viability (IC50) L3.6pl CSC
# [20] = adherent, complete medium 10% FBS, read-out: Cell viability (IC50) L3.6pl Adherent
IC50 (S2VP10; [1]),IC50 (S2VP10; [2]),IC50 (Suit-2; [3]),IC50 (Suit-2; [4]),IC50 (PANC-1; [5]),IC50 (PANC-1; [6]),IC50 (HCT116; [7]),IC50 (HCT116; [8]),IC50 (HT-29; [9]),IC50 (HT-29; [10]),IC50 (2LMP; [11]),IC50 (2LMP; [12]),IC50 (MDA-MB-468; [13]),IC50 (MDA-MB-468; [14]),IC50 (HCC1143; [15]),IC50 (HCC1143; [16]),IC50 (SUM159; [17]),IC50 (SUM159; [18]),IC50 (L3.6pl; [19]),SMILES,IC50 (Wnt signaling),other results
920 nM,1620 nM,2840 nM,9130 nM,1740 nM,210 nM,,,,,,,,,,,,,,"Oc1ccc(F)cc1-c1nc2c(Cl)cc(Cl)cc2[nH]1 [Compound 1, 2-(4,6-Dichloro-1H-benzo[d]imidazol-2-yl)-4-fluorophenol]",1340 nM,
590 nM,2570 nM,560 nM,2120 nM,3440 nM,570 nM,1610 nM,3840 nM,860 nM,4380 nM,2900 nM,3840 nM,330 nM,3830 nM,1300 nM,3180 nM,1170 nM,1670 nM,930 nM,"FC(F)(F)Oc1ccc(-c2nc3cc(Cl)c(Cl)cc3[nH]2)cc1 [Compound 6, 5,6-Dichloro-2-(4-(trifluoromethoxy)phenyl)-1H-benzo[d]imidazole]",190 nM,
770 nM,3880 nM,610 nM,5210 nM,4470 nM,300 nM,,,,,13000 nM,16800 nM,160 nM,1290 nM,700 nM,4500 nM,900 nM,1130 nM,660 nM,"FC(F)(F)c1ccc(-c2nc3c(Cl)cc(Cl)cc3[nH]2)cc1 [Compound 7, 4,6-Dichloro-2-(4-(trifluoromethyl)phenyl)-1H-benzo[d]imidazole]",6010 nM,IC50 (L3.6pl; [20]): 570 nM
770 nM,4860 nM,840 nM,8920 nM,> 10000 nM,1060 nM,,,,,,,,,,,,,620 nM,"FC(F)(F)Oc1ccc(-c2nc3c(Cl)cc(Cl)cc3[nH]2)cc1 [Compound 8, 4,6-Dichloro-2-(4-(trifluoromethoxy)phenyl)-1H-benzo[d]imidazole]",7920 nM,IC50 (L3.6pl; [20]): 1190 nM

# The remaining lines, values behind:
SMILES,IC50 (S2VP10; [1]),IC50 (S2VP10; [2]),IC50 (Suit-2; [3]),IC50 (Suit-2; [4]),IC50 (PANC-1; [5]),IC50 (PANC-1; [6]),IC50 (HCT116; [7]),IC50 (HCT116; [8]),IC50 (HT-29; [9]),IC50 (HT-29; [10]),IC50 (2LMP; [11]),IC50 (2LMP; [12]),IC50 (MDA-MB-468; [13]),IC50 (MDA-MB-468; [14]),IC50 (HCC1143; [15]),IC50 (HCC1143; [16]),IC50 (SUM159; [17]),IC50 (SUM159; [18]),IC50 (L3.6pl; [19]),IC50 (Wnt signaling),other results
"Oc1ccc(F)cc1-c1nc2cc(Cl)c(F)cc2[nH]1 [Compound 3, 2-(5-Chloro-6-fluoro-1H-benzo[d]imidazol-2-yl)-4-fluorophenol]",330 nM,1100 nM,1810 nM,3760 nM,2320 nM,410 nM,180 nM,1610 nM,3090 nM,6470 nM,,,,,,,,,,2800 nM,
"Oc1c(Cl)cccc1-c1nc2cc(C(F)(F)F)ccc2[nH]1 [Compound 5, 2-Chloro-6-(5-(trifluoromethyl)-1H-benzo[d]imidazol-2-yl)phenol]",210 nM,1040 nM,1150 nM,3160 nM,1330 nM,180 nM,,,,,920 nM,1150 nM,170 nM,1410 nM,500 nM,1190 nM,340 nM,500 nM,,2770 nM,
"Clc1cc2nc(-c3ccc(N4CCCC4)cc3)[nH]c2cc1Cl [Compound 12, 5,6-dichloro-2-(4-(pyrrolidin-1-yl)phenyl)-1H-benzo[d]imidazole]",> 10000 nM,2580 nM,> 10000 nM,2100 nM,,,2680 nM,1180 nM,510 nM,840 nM,,,,,,,,,,0.93 nM,
"CN1CCN(c2ccc(-c3nc4cc(Cl)c(Cl)cc4[nH]3)cc2F)CC1 [Compound 27, 5,6-dichloro-2-(3-fluoro-4-(4-methylpiperazin-1-yl)phenyl)-1H-benzo[d]imidazole]",2910 nM,8310 nM,1990 nM,8920 nM,,,1760 nM,830 nM,,140 nM,,,,,,,,,,4.67 nM,
"c1cc2[nH]c(-c3ccc(N4CCCC4)cc3)nc2cn1 [Compound 28, 2-(4-(pyrrolidin-1-yl)phenyl)-1H-imidazo[4,5-c]pyridine]",80 nM,110 nM,150 nM,160 nM,,,80 nM,110 nM,50 nM,60 nM,,,,,,,,,,10400 nM,
"Fc1cc2[nH]c(-c3ccc(N4CCCC4)cc3)nc2cc1Cl [Compound 31, 5-chloro-6-fluoro-2-(4-(pyrrolidin-1-yl)phenyl)-1H-benzo[d]imidazole]",750 nM,510 nM,940 nM,950 nM,,,160 nM,580 nM,40 nM,590 nM,,,,,,,,,,330 nM,
